Source: the supplement of paper PMC10307832

Key:
Assay in all cases: relative viability (nuclei count vs DMSO), 5 days (fraction); higher = more cells survive
[1] = test system: PC-3 [JPC-3]
Method in brief: (§1)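 Medians of duplicate plates are given as relative viability. That measure is the nuclei count in treated wells divided by the count in vehicle wells. Counts were taken on 4× images of lung cancer cell lines in 1536-well plates, 5 days after pin-tool dosing the day after seeding with one drug alone or a fixed anchor-drug dose plus five library-drug doses (not always all listed) in √10 steps.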

[2] = test system: HOP-62
Method in brief: as §1

[3] = test system: SW 900
Method in brief: as §1

[4] = test system: LXF-289
Method in brief: as §1

[5] = test system: NCI-H1395
Method in brief: as §1

[6] = test system: NCI-H596
Method in brief: as §1

[7] = test system: NCI-H2170
Method in brief: as §1

[8] = test system: NCI-H2126
Method in brief: as §1

[9] = test system: NCI-H647
Method in brief: as §1

[10] = test system: NCI-H650
Method in brief: as §1

[11] = test system: EPLC-272H
Method in brief: as §1

[12] = test system: NCI-H1651
Method in brief: as §1

[13] = test system: LOU-NH91
Method in brief: as §1

## Nc1cccc2c1CN(C1CCC(=O)NC1=O)C2=O (stereo not drawn) [Lenalidomide] + COc1cc2c(Oc3ccc(NC(=O)C4(C(=O)Nc5ccc(F)cc5)CC4)cc3F)ccnc2cc1OCCCN1CCOCC1 [Foretinib] (partner 0.25 µM)
[1]; first compound 0.8 µM
  relative viability: 0.974
[1]; first compound 2.53 µM
  relative viability: 1.17
[1]; first compound 8 µM
  relative viability: 1.08
[2]; first compound 0.253 µM
  relative viability: 0.989
[2]; first compound 0.8 µM
  relative viability: 1.03
[2]; first compound 2.53 µM
  relative viability: 1.28
[2]; first compound 8 µM
  relative viability: 1.2
[3]; first compound 0.253 µM
  relative viability: 0.785
[3]; first compound 2.53 µM
  relative viability: 0.879
[3]; first compound 8 µM
  relative viability: 0.884
[4]; first compound 0.253 µM
  relative viability: 0.977
[4]; first compound 0.8 µM
  relative viability: 1.01
[4]; first compound 2.53 µM
  relative viability: 1.07
[4]; first compound 8 µM
  relative viability: 1.09
[5]; first compound 0.253 µM
  relative viability: 0.958
[5]; first compound 0.8 µM
  relative viability: 1.09
[5]; first compound 2.53 µM
  relative viability: 1.11
[5]; first compound 8 µM
  relative viability: 0.822
[6]; first compound 0.253 µM
  relative viability: 0.799
[6]; first compound 2.53 µM
  relative viability: 0.908
[6]; first compound 8 µM
  relative viability: 0.789
[7]; first compound 0.253 µM
  relative viability: 0.972
[7]; first compound 0.8 µM
  relative viability: 1
[7]; first compound 2.53 µM
  relative viability: 1.04
[7]; first compound 8 µM
  relative viability: 1.02
[8]; first compound 0.253 µM
  relative viability: 1.33
[8]; first compound 0.8 µM
  relative viability: 1.13
[8]; first compound 2.53 µM
  relative viability: 1.39
[8]; first compound 8 µM
  relative viability: 1.14
[9]; first compound 0.253 µM
  relative viability: 0.856
[9]; first compound 0.8 µM
  relative viability: 1.12
[9]; first compound 2.53 µM
  relative viability: 1.21
[9]; first compound 8 µM
  relative viability: 1.11
[10]; first compound 0.253 µM
  relative viability: 1.02
[10]; first compound 2.53 µM
  relative viability: 1.14
[10]; first compound 8 µM
  relative viability: 1.01
[11]; first compound 0.253 µM
  relative viability: 0.795
[11]; first compound 0.8 µM
  relative viability: 0.658
[11]; first compound 2.53 µM
  relative viability: 0.681
[11]; first compound 8 µM
  relative viability: 0.549
[12]; first compound 0.253 µM
  relative viability: 0.837
[12]; first compound 0.8 µM
  relative viability: 0.963
[12]; first compound 2.53 µM
  relative viability: 0.914
[12]; first compound 8 µM
  relative viability: 0.804
[13]; first compound 0.253 µM
  relative viability: 0.97
[13]; first compound 0.8 µM
  relative viability: 0.923
[13]; first compound 2.53 µM
  relative viability: 0.942
[13]; first compound 8 µM
  relative viability: 0.898
